Laboratory results taken from patent publication US10231980B2, “Cortexolone 17alpha-benzoate for use in the treatment of tumours” (COSMO TECHNOLOGIES LTD., priority 2014, dated 2019).
Read-outs that look alike come from different tables or passages of the source.

Legend:
[1] = system: stimulated PBMC; experiment: IC50 on stimulated (actively dividing) PBMC; type: cell-based, human; settings: Homo sapiens, PBMC, PBMC STIMULATED; Table IV; read-out: In vitro proliferation IC50
Procedure: (§1) The compound toxicity was determined as follow:
(§2) Therapeutic Index=Safety/Potency=IC50 stimulated PBMC/IC50 cancer cell

[2] = system: LNCaP; experiment: ATP-dependent cell viability assay (Cell Titer Glo), Example 12; settings: for IC50: Homo sapiens
Text: (§3) Data shown in Table I were fitted through sigmoidal dose response curves and analyzed using Prizm statistical.

[3] = system: MiaPaca2; experiment: as above; settings: for IC50: Homo sapiens
Text: as §3

[4] = system: PC3; experiment: as above; settings: for IC50: Homo sapiens
Text: as §3

[5] = system: Panc1; experiment: as above; settings: for IC50: Homo sapiens
Text: as §3

[6] = system: MCF7; experiment: In vitro proliferation / cytotoxic assay on breast cancer cells (Examples 14, 25)
Procedure: as §3
For the cytotoxic assay, cells were seeded in 96-well flat bottom culture plates in media containing charcoal stripped serum. After 24 hours, test compounds were added to the cells. DMSO was used as the vehicle negative control and RU486 as the positive control. After 72 hour incubation, cells were harvested and lysed to determine cell viability using the Cell Titer Glow assay.

[7] = system: 7 cancer cell lines; experiment: Therapeutic index over a panel of cancer cell lines; type: cell-based; settings: average over the cancer cell lines of Table VII
Procedure: as §1, §2

[8] = system: stimulated PBMC; experiment: IC50 on stimulated (actively dividing) PBMC; type: cell-based, human; settings: PBMC Stim; Table IV
[9] = system: MiaPaca2 (AR low); experiment: ATP-dependent proliferation assay with 10 nM DHT, pancreatic cancer cells (Examples 3, 4, 7); settings: for TI on Resting PBMC: IC50 resting PBMC / IC50 MiaPaca2; for TI on Stimulated PBMC: IC50 stimulated PBMC / IC50 MiaPaca2
Procedure: (§4) The experimental method consisted of: • 1. […] After 24 hrs, 10 nM DHT (dihydrotestosterone) with or without anti-androgen compounds, or DMSO vehicle (negative control) was added to the cultures. • 3.
(§5) Data from Experiment 1 were fitted through sigmoidal dose response curves and analyzed using Prizm statistical analysis software. […] The results from 2 sets of experiments follow.
(§6) Data from Experiment 1 was fitted through sigmoidal dose response curves and analyzed using Prizm statistical analysis software.

[10] = system: Panc1 (AR+); experiment: as above; settings: for TI on Resting PBMC: IC50 resting PBMC / IC50 Panc1; for TI on Stimulated PBMC: IC50 stimulated PBMC / IC50 Panc1
Procedure: as §4, §5, §6

[11] = system: MiaPaca-2 pancreatic tumor xenograft; experiment: Human pancreatic tumor xenograft in nude mice; type: in vivo
Procedure: Cortexolone 17α-benzoate and Cyproterone Acetate were separately diluted in DMSO/2-hydroxypropyl β-cyclodextrin (vehicle).
The test was carried out comparing the anti-tumor activity of cortexolone 17α-benzoate at two different dosages (8.0 mg/kg, corresponding approximately at 230 μM, and 40 mg/kg, corresponding approximately at 1150 μM), versus the vehicle (i.e. 0.4% (v/v) tween 80 and 0.5% (w/v) carboxymethylcellulose in normal saline) and versus the comparator Cyproterone Acetate at two different dosages (7.4 mg/kg and 37 mg/kg).
1×10^6 MiaPaca-2 cells suspended in matrigel were sub-cutaneously injected into 6 week old athymic nude mice.
The treatment with the tested compounds, with the vehicle and with the comparative compound, was initiated after the tumor volume has reached 50 mm^3 after transplantation. All compounds were injected 100 μL/mouse of low dose solution (approximately 230 μM) or 100 μL/mouse of high dose solution (approximately 1150 μM) of cortexolone 17α-benzoate, vehicle and Cyproterone Acetate, respectively. Compounds and controls were administered subcutaneously daily for 28 days.
Tumors were measured every 4 days with a digital caliper.
The results are plotted in FIG. 1 as average change in tumor volume relative to the start of treatment. Tumor volume was calculated according to the formula 0.5236(r1)^2(r2) where r1<r2.
Error bars are the SEM for 7 to 10 mice per treatment group. P values were calculated according to the Student's t test.
Cortexolone 17α-valerate-21-propionate and Cyproterone Acetate were separately diluted in DMSO/2-hydroxypropyl β-cyclodextrin (vehicle).
The test was carried out comparing the anti-tumor activity of cortexolone 17α-valerate-21-propionate at two different dosages (approximately 8.6 mg/kg and 43 mg/kg) versus the vehicle (i.e. 0.4% (v/v) tween 80 and 0.5% (w/v) carboxymethylcellulose in normal saline) and versus the comparator Cyproterone Acetate at two different dosages (7.4 mg/kg and 37 mg/kg).
1×10^6 MiaPaca-2 cells suspended in matrigel were subcutaneously injected into 6 week old athymic nude mice.
The treatment with the tested compound, with the vehicle and with the comparative compound was initiated after the tumor has reached a volume of 50 mm^3 after implantation, injecting subcutaneously 100 μL/mouse of low dose solution (approximately 230 μM) or 100 μL/mouse of high dose solution (approximately 1150 μM) of cortexolone 17α-valerate-21-propionate, vehicle and Cyproterone Acetate, respectively. Compounds and controls were administered subcutaneously daily for 28 days. Tumors were measured every 4 days with a digital caliper.
The results are plotted in FIG. 2 as average change in tumor volume relative to the start of treatment. Tumor volume was calculated according to the formula 0.5236(r1)^2(r2) where r1<r2.
Cyproterone acetate (CPA), a well-known anti-androgen, was used as control. Briefly 1×10^6 MiaPaca2 cells suspended in matrigel were subcutaneously (sc) injected into 6 week old male athymic nude mice. Tumors were measured every 4 days with a digital caliper. Tumor volume was calculated according to the formula: 0.5236(r1)2(r2) where r1<r2. Treatment with CB-03-06 and control compounds were initiated after the tumor had reached 50 mm^3. Compounds diluted in DMSO/2-hydroxypropyl b-cyclodextrin (vehicle) were subcutaneously injected daily (100 microL/mouse) at the concentration of 40 mg/Kg daily for 28 consecutive days.

[12] = LNCaP, read-out: In vitro proliferation IC50
[13] = PC-3, 72 h, PC3, Tables I and II, titrated 3 uM to 200 uM, 3 days
[14] = PC-3, read-out: In vitro proliferation IC50, PC3, Table IV
[15] = Experiment 1, 0 = higher toxicity in PBMC

Work on CCCC(=O)OCC(=O)[C@@]1(OC(=O)CCC)CCC2C3CCC4=CC(=O)CC[C@]4(C)C3CC[C@@]21C (some centres unmarked) [CB-03-03] yielded an IC50 [1] of 140 µM, an IC50 ([2]; LNCaP, 72 h) of 16 µM and an IC50 [2, 12] of 16 µM. The “Therapeutic Index = IC50 resting PBMC/IC50 cancer cell” value ([2]; human, 3 days) was 9, the “Therapeutic Index = IC50 stimulated PBMC/IC50 cancer cell” value ([2]; human, 3 days) was 9 and the IC50 ([3]; MIA PaCa-2, 72 h) was 30 µM. The IC50 ([3]; MIA PaCa-2, read-out: In vitro proliferation IC50) was 30 µM, the “Therapeutic Index = IC50 resting PBMC/IC50 cancer cell” value ([3]; human, 3 days) was 5 and the “Therapeutic Index = IC50 stimulated PBMC/IC50 cancer cell” value ([3]; human, 3 days) was 5. For the same molecule, the IC50 [4, 13] was 53 µM, the IC50 [4, 14] was 53 µM and the “Therapeutic Index = IC50 resting PBMC/IC50 cancer cell” value ([4]; human, 3 days) was 3. The “Therapeutic Index = IC50 stimulated PBMC/IC50 cancer cell” value ([4]; human, 3 days) was 3, the IC50 ([5]; PANC-1, 72 h) was 70 µM and the IC50 ([5]; PANC-1, read-out: In vitro proliferation IC50) was 70 µM. The “Therapeutic Index = IC50 resting PBMC/IC50 cancer cell” value ([5]; human, 3 days) was 2, the “Therapeutic Index = IC50 stimulated PBMC/IC50 cancer cell” value ([5]; human, 3 days) was 2 and the IC50 ([6]; Homo sapiens, MCF7, read-out: In vitro proliferation IC50) was 32 µM. For the same molecule, the “Therapeutic Index = IC50 resting PBMC/IC50 cancer cell” value ([6]; human, 3 days) was 4, the “Therapeutic Index = IC50 stimulated PBMC/IC50 cancer cell” value ([6]; human, 3 days) was 4 and the “Therapeutic Index = IC50 stimulated PBMC/IC50 cancer cell, AVERAGE” value [7] was 4. For the same molecule, the “Therapeutic Index = IC50 resting PBMC/IC50 cancer cell” value [8] was 1.

CC(=O)O[C@]1(C(C)=O)CC[C@H]2[C@@H]3C=C(Cl)C4=CC(=O)[C@@H]5C[C@@H]5[C@]4(C)[C@H]3CC[C@@]21C [Cyproterone Acetate, reference compound] was tested, and the “TI on Resting PBMC” value [9, 15] was 0, the “TI on Resting PBMC” value ([9]; Experiment 2) was 1 and the “TI on Stimulated PBMC” value [9, 15] was 2. For the same molecule, the “TI on Stimulated PBMC” value ([9]; Experiment 2) was 2, the “TI on Resting PBMC” value [10, 15] was 0 and the “TI on Resting PBMC” value ([10]; Experiment 2) was 4. For the same molecule, the “TI on Stimulated PBMC” value [10, 15] was 1, the “TI on Stimulated PBMC” value ([10]; Experiment 2) was 1 and the IC50 ([2]; LNCaP, 72 h) was 22 µM. For the same molecule, the IC50 [2, 12] was 22 µM, the “Therapeutic Index = IC50 resting PBMC/IC50 cancer cell” value ([2]; LNCaP, Table IV) was 3 and the “Therapeutic Index = IC50 stimulated PBMC/IC50 cancer cell” value ([2]; LNCaP, Table VII) was 3. For the same molecule, the “Therapeutic Index = IC50 resting PBMC/IC50 cancer cell” value ([3]; MiaPaca2, Table IV) was 2, the “Therapeutic Index = IC50 stimulated PBMC/IC50 cancer cell” value ([3]; MiaPaca2, Table VII) was 2 and the IC50 [4, 13] was 90 µM. The IC50 [4, 14] was 90 µM, the “Therapeutic Index = IC50 resting PBMC/IC50 cancer cell” value ([4]; PC3, Table IV) was 1 and the “Therapeutic Index = IC50 stimulated PBMC/IC50 cancer cell” value ([4]; PC3, Table VII) was 1. For the same molecule, the “Therapeutic Index = IC50 resting PBMC/IC50 cancer cell” value ([5]; Panc1, Table IV) was 1, the “Therapeutic Index = IC50 stimulated PBMC/IC50 cancer cell” value ([5]; Panc1, Table VII) was 1 and the “Therapeutic Index = IC50 resting PBMC/IC50 cancer cell” value ([6]; MCF7, Table IV) was 1. The “Therapeutic Index = IC50 stimulated PBMC/IC50 cancer cell” value ([6]; MCF7, Table VII) was 1, the “pancreatic tumor size relative to the size when treatment was initiated” value ([11]; Example 5, MiaPaca-2 xenograft, nude mice, SC daily 28 days, high dose of cortexolone 17α-benzoate (40 mg/kg)) was 12 fold and the “pancreatic tumor size relative to the initial tumor size” value ([11]; Example 6, MiaPaca-2 xenograft, nude mice, SC daily 28 days, for the time of treatment) was at least 12 fold. For the same molecule, the “pancreatic tumor size relative to the initial size” value ([11]; Example 22, MiaPaca2 xenograft, male nude mice, 40 mg/Kg SC daily 28 days, treatment period) was 12 fold, the Median survival ([11]; Example 22, MiaPaca2 xenograft, 40 mg/Kg SC daily 28 days) was 40 days and the “Therapeutic Index = IC50 stimulated PBMC/IC50 cancer cell, AVERAGE” value [7] was 1. The “Therapeutic Index = IC50 resting PBMC/IC50 cancer cell” value [8] was 1.
